Earlier results in patent publication US20080131532A1, “Fast asleep” (priority 2006, published 2008).

What was measured:
[1] = test system: acetylcholinesterase
[2] = test system: sleep-disturbed rats
[3] = test system: schizophrenic outpatients with initial insomnia; conditions: 3-12 mg/night, 15 days
[4] = test system: long-term users of benzodiazepine; conditions: 2 milligrams daily controlled release
[5] = test system: patients with tinnitus; conditions: 3 mg per day for 4 weeks; weeks 0 to 4 and weeks 0 to 8
[6] = test system: primary or secondary sleep disorders; conditions: meta-analysis
[7] = test system: children with idiopathic chronic sleep-onset insomnia; conditions: 5 mg at 7 pm, 4-week treatment
[8] = test system: healthy male volunteers; conditions: 10-mg dose for 28 days, 1 hour before sleep time
[9] = test system: women; conditions: 100 mg pill at 08.00 h
[10] = test system: healthy elderly subjects; conditions: 1 mg nightly for 4 weeks
[11] = test system: children with neurologic disorders; conditions: 5 milligrams at bedtime, six children
[12] = test system: jet lag; conditions: two doses, different administration times
[13] = test system: travelers crossing five or more time zones
[14] = test system: women with asthma; conditions: 3 mg for 4 weeks, between groups
[15] = test system: rat brain; conditions: following administration
[16] = test system: subjects with Alzheimer's disease; conditions: eight weeks, 50 subjects
[17] = in vivo
[18] = test system: patients with multi-infarct dementia or senile dementia and senile and pre-senile simple memory disorders
[19] = sleep-disturbed rats, 09:00 to 15:00

With CC1=C[C@H]2Cc3[nH]c(=O)ccc3[C@]3(C1)NCCC[C@H]23 [Huperzine B] as the compound, how does the “acetylcholinesterase inhibition (in words)” value [1] read?
Its value is “much less potent”.

With CCOC(=O)c1ncn2c1CN(C)C(=O)c1cc(F)ccc1-2 [Flumazenil, flumazenil] as the compound, how does the “effect on changes in delta activity induced by kava-kava extract and flunitrazepam” value ([2]; sleep-disturbed rats) read?
Its value is “no significant effect”.

For COc1ccc2[nH]cc(CCNC(C)=O)c2c1 [Melatonin, N-[2-(5-Methoxy-1H-indol-3-yl)ethyl]acetamide], which daytime functioning [3] is on record?
Its daytime functioning is “improved”.

And the duration of sleep [3]?
The duration of sleep was “increased”.

What about the freshness on awakening [3] of the same compound?
The freshness on awakening was “heightened”.

And the mood [3]?
Its mood is “improved”.

And the “number of nighttime awakenings” value [3]?
The value was “reduced”.

And the “sleep-onset latency (subjective)” value [3]?
The value was “significantly reduced”.

And the “Sleep quality scores versus placebo” value [4]?
The value was “significantly higher”.

And the “subjects who completely discontinued benzodiazepine use” value ([4]; period one, placebo four of 16)?
The value was 14 of 18.

What about the “mean PSQI” value [5] of the same compound?
Its value is “significantly decreased”.

What about the “mean THI score” value [5] of the same compound?
Its value is “decreased significantly”.

And the “efficacy in primary or secondary sleep disorders” value [6]?
Its value is “not effective”.

And the Lights-off time [7]?
Its Lights-off time is “did not change”.

What about the “advance of sleep offset” value [7] of the same compound?
Its value is 9 min.

What about the “advance of sleep onset” value [7] of the same compound?
The value was 57 min.

And the “decrease of sleep latency” value [7]?
Its value is 17 min.

What about the “total scores of the RAND-GHRI and FS-II compared to placebo” value [7] of the same compound?
The value was “improved significantly more”.

What about the total sleep time [7] of the same compound?
Its total sleep time is “did not change”.

And the “advance of melatonin onset” value ([7]; dim light melatonin onset in saliva)?
The value was 82 min.

What about the “standardized response mean for the RAND-GHRI” value ([7]; placebo 0.07) of the same compound?
Its value is 0.69.

What about the “standardized response mean for the FS-II” value ([7]; placebo 0.64) of the same compound?
Its value is 1.61.

And the “sleep latency, criterion 10 minutes of uninterrupted sleep” value [8]?
Its value is “significant reduction”.

What about the “daytime cortisol levels in postmenopausal women (PMW)” value [9] of the same compound?
The value was “marked increase”.

What about the “serum cortisol levels in young women (EFW)” value [9] of the same compound?
The value was “did not modify”.

And the “California Verbal Learning Test-interference subtest scores” value [10]?
The value was “improved”.

And the reported morning restedness [10]?
Its reported morning restedness is “improved”.

And the “sleep latency after nocturnal awakening” value [10]?
The value was “improved”.

And the “Quality and quantity of sleep” value [11]?
The value was “quickly increased in five of the six children”.

What about the “effect on jet lag versus placebo” value [12] of the same compound?
Its value is “no beneficial physiological effect”.

What about the “effect on jet lag” value [13] of the same compound?
The value was “reduce or prevent jet lag”.

What about the “asthma symptoms, use of relief medication and daily peak expiratory flow rate” value [14] of the same compound?
Its value is “No significant difference”.

What does the source list for CN1C(=O)CN=C(c2ccccc2F)c2cc([N+](=O)[O-])ccc21 [flunitrazepam]?
antagonism of the effects by flumazenil ([2]; benzodiazepine receptor antagonist flumazenil): antagonized; delta activity during non-REM sleep ([2]; sleep-disturbed rats): significant decrease; total non-REM sleep time [2, 19]: increase; total waking time [2, 19]: decrease; sleep latency ([2]; sleep-disturbed rats, kava-kava extract 300 mg/kg): significant shortening

Which “acetylcholine levels in the rat brain” value [15] does the source give for C/C=C1\[C@H]2C=C(C)C[C@]1(N)c1ccc(=O)[nH]c1C2 [Huperzine A] here?
The value was “increase”.

What about the dopamine levels [15] of the same compound?
The dopamine levels was “increases”.

And the norepinephrine levels [15]?
The norepinephrine levels was “increases”.

What about the “patients with significant improvement in memory, cognitive and behavioral functions” value [16] of the same compound?
The value was 58%.

And the “time to reach peak blood level” value [17]?
The value was “approximately 80 minutes”.

And the Dizziness ([18]; in vivo)?
The Dizziness was “experienced by a few”.

What about the “Wechsler Memory Scale” value ([18]; injectable form versus saline control) of the same compound?
The value was “significant positive effects”.

What about the “duration of AChE inhibitory action” value (compared with tacrine, donepezil, and rivastigmine) of the same compound?
Its value is “longer duration”.

What about the “penetration through the blood-brain barrier” value (in vivo) of the same compound?
Its value is “better penetration”.

And the “toxicity in animal and clinical safety tests” value (in vivo)?
Its value is “no unexpected toxicity”.

What about the oral bioavailability (in vivo, po) of the same compound?
The oral bioavailability was “higher”.

What about the memory deficits (phase IV clinical trials in China, elderly with benign senescent forgetfulness, Alzheimer disease, vascular dementia) of the same compound?
Its memory deficits is “significantly improved”.
